Test results published in paper PMC10791743, “Selective CK1α degraders exert antiproliferative activity against a broad range of human cancer cell lines” (Nature Communications, 2024).
“And” between values parts separate entries of the source, which are not always exact repeats. Identical values can stand only once.

Tests used:
[1] = Liver microsomes stability assay, human; type: in vitro ADME
Procedure: page 31: using a REMS Autosampler (World Precision Instruments, Sarasota, […]1 cells were grown for 5 days to reach a consistent confluency level monitored by epithelial voltohmmeter to confirm the intactness of the confluent polarized monolayer. For transport experiments, each cultured monolayer on the 96-well plate was washed twice with a transport buffer (HBSS/25 mM […] The cell-based permeability assay was initiated by the addition of each compound solution (10 μmol/L) into inserts (apical side, A) or receivers (basolateral side, B). After incubated […] (if basal to apical permeability), and concentrations were assessed by UPLC/MS (Waters; Milford, MA). All compounds were tested in triplicates. The A→B (or B→A) apparent permeability coefficients (Papp) of each compound were calculated using the equation (3): […], where dQ/dt equals the flux of a drug across the monolayer, the parameters of A equals the surface area of total insert well, and C0 is the initial concentration of substrate in the donor compartment. The efflux ratio was determined by dividing the Papp in the B-A direction by the Papp in the A-B direction. […] NADPH regenerating agent solutions A and B (Corning GentestTM, Cat. No: 451220) were purchased from Discovery Labware (Woburn, MA). Mouse liver microsomes (CD-1, pooled, GibcoTM, Cat. No: MSMCPL) were obtained from Thermo Fisher Scientific (Fredrick, MD). Pooled human liver microsomes (mixed gender, Cat. No: E0630) were purchased from XenoTech (Lenexa, KS). Stock solutions of test compounds were prepared at 10 mM in DMSO. Sample preparation for microsomal stability was modified from Di's publications3,4. […] and 4 hours) by Labcyte Echo 650 acoustic dispenser (Beckman Coulter Life Sciences, Indianapolis, IN). All compounds were tested in triplicate per time point. […] Plasma stability assay5: The degradation of human or mouse plasma was assessed by monitoring the gradual reduction of the parent compound over specified time intervals (0, 3, 24, and 48 hours). […]

[2] = target: T1, CK1α-CRBN ternary complex (Homo sapiens, UniProt P48729+Q96SW2); experiment: Live cell CK1α-CRBN ternary complex NanoBRET assay; type: cell-based
T1 construct: engineered by CRISPR/Cas9 to express endogenous CK1α (HEK293 cells) or IKZF1 (Jurkat cells) with a HiBiT tag; CS3023104 (cells)
Procedure: CSNK1A1CK1α-HiBiT HEK293 LgBiT stable cells weretransfected with a HaloTag-CRBN vector (Promega, Cat. #N269A) using Fugene HD (Promega, Cat. #E2311). […] Plates were incubated overnight at 37 °C with 5% CO2. On day 3, a dose–response curve was generated by performing 3-fold dilutions of each compound including a DMSO-only control in OptiMEM I Reduced Serum Medium, no phenol red supplemented with 4% FBS. Cells were treated with MG132 (Selleckchem, Cat. #S2619) for 30 min before being treated with the dilution series of compounds. Plates were incubated for 2 h at 37 °C with 5% CO2. After 2 h, plates were read using NanoBRET Nano-Glo substrate (Promega #N1573) on a GloMax Discover following the manufacturer’s instructions. No ligand controls were subtracted from each sample and normalized to the no compound DMSO control to obtain Fractional BRET values. EC50 values were calculated for each compound curve.

T1 sequence (Q96SW2 whole entry): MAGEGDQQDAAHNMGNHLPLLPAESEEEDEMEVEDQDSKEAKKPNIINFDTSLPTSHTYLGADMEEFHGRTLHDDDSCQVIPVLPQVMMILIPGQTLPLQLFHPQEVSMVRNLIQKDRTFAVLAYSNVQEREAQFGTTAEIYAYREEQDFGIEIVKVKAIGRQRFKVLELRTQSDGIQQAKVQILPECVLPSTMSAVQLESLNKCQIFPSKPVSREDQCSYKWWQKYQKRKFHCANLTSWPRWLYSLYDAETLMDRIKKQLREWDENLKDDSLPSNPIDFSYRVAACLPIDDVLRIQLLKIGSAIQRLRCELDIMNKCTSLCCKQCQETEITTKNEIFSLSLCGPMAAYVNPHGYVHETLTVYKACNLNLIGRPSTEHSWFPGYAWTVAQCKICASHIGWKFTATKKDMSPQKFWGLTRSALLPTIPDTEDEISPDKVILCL
T1 sequence (P48729 whole entry): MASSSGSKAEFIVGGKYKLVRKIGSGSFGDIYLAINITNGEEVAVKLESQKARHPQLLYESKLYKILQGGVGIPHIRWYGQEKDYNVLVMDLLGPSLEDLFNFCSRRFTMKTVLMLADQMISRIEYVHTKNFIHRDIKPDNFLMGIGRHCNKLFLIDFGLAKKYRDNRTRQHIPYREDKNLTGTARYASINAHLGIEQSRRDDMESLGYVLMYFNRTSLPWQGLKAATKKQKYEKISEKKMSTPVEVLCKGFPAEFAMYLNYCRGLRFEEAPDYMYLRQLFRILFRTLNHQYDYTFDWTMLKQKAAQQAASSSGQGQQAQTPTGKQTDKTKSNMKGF
T1 sequence (Q16531 whole entry partner): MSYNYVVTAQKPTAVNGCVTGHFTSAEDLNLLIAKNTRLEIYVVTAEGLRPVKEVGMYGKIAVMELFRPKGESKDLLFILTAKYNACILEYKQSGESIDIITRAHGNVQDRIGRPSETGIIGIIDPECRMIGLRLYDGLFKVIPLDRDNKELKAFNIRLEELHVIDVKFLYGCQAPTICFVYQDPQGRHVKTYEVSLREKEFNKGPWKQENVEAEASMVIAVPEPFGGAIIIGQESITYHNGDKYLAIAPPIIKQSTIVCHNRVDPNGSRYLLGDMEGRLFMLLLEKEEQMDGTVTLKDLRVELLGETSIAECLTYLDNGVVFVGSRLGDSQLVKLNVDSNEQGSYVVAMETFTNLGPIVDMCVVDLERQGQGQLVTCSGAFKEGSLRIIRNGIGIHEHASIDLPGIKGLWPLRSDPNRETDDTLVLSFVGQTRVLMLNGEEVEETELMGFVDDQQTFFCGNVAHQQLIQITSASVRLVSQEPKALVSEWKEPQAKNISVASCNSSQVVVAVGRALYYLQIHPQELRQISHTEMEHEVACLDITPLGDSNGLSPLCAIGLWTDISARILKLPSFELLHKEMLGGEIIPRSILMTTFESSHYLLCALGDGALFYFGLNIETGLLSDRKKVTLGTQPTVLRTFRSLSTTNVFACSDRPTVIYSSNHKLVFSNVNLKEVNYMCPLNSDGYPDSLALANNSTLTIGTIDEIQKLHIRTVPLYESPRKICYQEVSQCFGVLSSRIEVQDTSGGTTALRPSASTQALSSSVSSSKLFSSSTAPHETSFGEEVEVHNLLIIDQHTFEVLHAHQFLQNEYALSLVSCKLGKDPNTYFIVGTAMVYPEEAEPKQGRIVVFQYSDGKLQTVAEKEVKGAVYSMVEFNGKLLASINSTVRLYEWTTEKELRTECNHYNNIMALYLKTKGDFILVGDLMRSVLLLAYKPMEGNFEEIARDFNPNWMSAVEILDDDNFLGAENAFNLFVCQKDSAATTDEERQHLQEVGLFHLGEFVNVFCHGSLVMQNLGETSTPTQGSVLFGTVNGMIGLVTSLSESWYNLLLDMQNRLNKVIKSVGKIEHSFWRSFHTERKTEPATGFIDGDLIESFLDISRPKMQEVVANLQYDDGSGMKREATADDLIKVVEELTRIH

Structure (SMILES)	half-life at 10 µM ([1]; both sexes, human, liver microsomes, pH 7.4, read-out: Microsome stability t1/2)	CK1a: CRBN Ternary Complex NanoBRET Ratio ([2]; 0.111 uM)	CK1a: CRBN Ternary Complex NanoBRET Ratio, Normalized ([2]; 0.111 uM)	CK1a: CRBN Ternary Complex NanoBRET Ratio ([2]; 0.333 uM)	CK1a: CRBN Ternary Complex NanoBRET Ratio, Normalized ([2]; 0.333 uM)	CK1a: CRBN Ternary Complex NanoBRET Ratio ([2]; 1 uM)	CK1a: CRBN Ternary Complex NanoBRET Ratio, Normalized ([2]; 1 uM)	CK1a: CRBN Ternary Complex NanoBRET Ratio ([2]; 3 uM)	CK1a: CRBN Ternary Complex NanoBRET Ratio, Normalized ([2]; 3 uM)	CK1a: CRBN Ternary Complex NanoBRET Ratio ([2]; 10 uM, replicates)	CK1a: CRBN Ternary Complex NanoBRET Ratio, Normalized ([2]; 10 uM, replicates)	Ternary complex formation (NanoBRET signal) ([2]; 2 h treatment)	Ke [1]	t(1/2) [1]
O=C1CCC(N2Cc3cc(Nc4noc5ccccc45)ccc3C2=O)C(=O)N1 (stereo not drawn) [SJ3149]	> 10 h	3.47 mBU and 2.55 mBU and 2.79 mBU	23.75 and 17.45 and 19.07	4.12 mBU and 3.68 mBU and 3.78 mBU	28.17 and 25.18 and 25.82	4.59 mBU and 4.78 mBU and 4.4 mBU	31.39 and 32.66 and 30.10	4.96 mBU and 4.79 mBU and 5.46 mBU	33.90 and 32.75 and 37.33	5.57 mBU and 5.32 mBU and 5.78 mBU	38.09 and 36.40 and 39.49	most robust complex formation	–	–
O=C1CCC(N2Cc3c(CNC(=O)c4ccc(F)cc4)cccc3C2=O)C(=O)N1 (stereo not drawn) [SJ7095]	–	3.3 mBU and 3.11 mBU and 3.22 mBU and 2.76 mBU	3.03 and 2.85 and 2.95 and 2.53	4.47 mBU and 5.14 mBU and 4.06 mBU and 4.1 mBU	4.10 and 4.71 and 3.72 and 3.76	5.33 mBU and 5.06 mBU and 5.38 mBU and 4.31 mBU	4.89 and 4.64 and 4.93 and 3.95	5.47 mBU and 7.05 mBU and 5.71 mBU and 6.74 mBU	5.01 and 6.46 and 5.23 and 6.18	7.23 mBU and 6.62 mBU and 6.74 mBU and 6.49 mBU	6.63 and 6.07 and 6.18 and 5.95	–	–	–
O=C1CCC(N2Cc3cc(Nc4noc5ccccc45)ccc3C2=O)C(=O)N1 (stereo not drawn) [SJ001043149-1]	–	–	–	–	–	–	–	–	–	–	–	–	-0.00692	-100.22
